We go through 4 compounds from ChEMBL document CHEMBL1201862, “PubChem BioAssay data set” (2004).

Structures are written as SMILES.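 Tested at 5 concentrations; 48 h exposure; 96-well plates; endpoints linearly interpolated, else capped at highest concentration. GI50: concentration for 50% inhibition of growth.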 Active and inactive are the calls of the source. Rule as the data show it: active = GI50 up to about 1.1 µM and inactive = higher.

Some test systems named below: A549; ACHN; BT-549; CAKI-1; HCT-15; HOP-92; K562; KM12; LOX IMVI; MCF7; NCI-H460; NCI-H522; PC-3; SF-268; SN12C; SR; SW-620; T47D; TK-10; UACC-62.
Holding throughout (test): NCI anticancer screen, dose series, 48 h

With `Nc1nc(O)c2nc3c(nc2n1)C(=O)N(c1ccc(C(=O)O)cc1)C3`, the GI50 in the test with A549 was > 100 µM (inactive); in the test with ACHN, > 100 µM (inactive); in the test with BT-549 it was > 100 µM (inactive); in the test with CAKI-1, > 100 µM (inactive); in the test on HCT-15, > 100 µM; in the test with HOP-92, > 100 µM (inactive). Moreover, the GI50 with K562, with KM12, with LOX IMVI, with MCF7, with NCI-H460 and with NCI-H522 was > 100 µM (inactive) in each case. Besides, the GI50 in the test with PC-3, in the test on SF-268, in the test with SN12C, in the test on SR, in the test on SW-620 and in the test on T47D was > 100 µM (inactive) each time. For the same compound, the GI50 with TK-10 and with UACC-62 was > 100 µM (inactive) throughout.

`CCCCC1Cc2cc(O)ccc2-c2n1c1cc(O)ccc1[n+]2C.CCCCC1Cc2cc(O)ccc2-c2n1c1ccc(O)cc1[n+]2C` (stereo not given): the GI50 in the test on A549 was 22.9 µM (inactive); in the test with ACHN, 56 µM (inactive); with BT-549, 19 µM (inactive); in the test with CAKI-1 it was > 100 µM (inactive); in the test on HCT-15 it was 51.8 µM; with HOP-92, 9.55 µM (inactive). Moreover, the GI50 with K562 is 17.7 µM (inactive); in the test with KM12, 28.2 µM (inactive); with LOX IMVI, 39 µM (inactive); in the test on MCF7 it was 19 µM (inactive); with NCI-H460, 37.9 µM (inactive); with NCI-H522, 2.99 µM (inactive). Further, the GI50 in the test with PC-3 was 49.5 µM (inactive); with SF-268, 4.57 µM (inactive); with SN12C, 5.58 µM (inactive); in the test on SR, 56.5 µM (inactive); with SW-620, 32.2 µM (inactive); in the test with T47D, 22.3 µM (inactive). The GI50 with TK-10 was 22.1 µM (inactive); with UACC-62, 24.4 µM (inactive).

`CC1OC(OC2C(O[C@H]3CC[C@@]4(C)C(=CC[C@H]5[C@@H]6C[C@@H]7O[C@]8(CC[C@@H](C)CO8)[C@@H](C)[C@@H]7[C@@]6(C)CC[C@@H]54)C3)OC(CO)C(O)C2O)C(O)C(O)C1O` (stereo not given in full): the GI50 in the test with A549 was 0.647 µM (active); in the test with ACHN it was 1.58 µM (inactive); with BT-549 it was 4.49 µM (inactive); with CAKI-1, 1.7 µM (inactive); in the test on HCT-15, 1.96 µM; in the test on HOP-92 it was 2.95 µM (inactive). Moreover, the GI50 in the test with K562 was 1.57 µM (inactive); in the test on KM12, 0.838 µM (active); with LOX IMVI it was 0.805 µM (active); in the test on MCF7 it was 1.82 µM (inactive); in the test on NCI-H460, 0.327 µM (active); in the test with NCI-H522, 1.28 µM (inactive). The GI50 with PC-3 was 0.581 µM (active); in the test with SF-268 it was 2.44 µM (inactive); in the test with SN12C, 1.1 µM (active); with SR it was 2.77 µM (inactive); in the test on SW-620 it was 0.681 µM (active); with T47D, 3.76 µM (inactive). Further, the figures for the GI50 in the test with TK-10 and in the test on UACC-62 were 1.53 µM (inactive) and 1.4 µM (inactive), respectively.

As to `CN(O)C(=O)Cc1ccc(OCc2cccc(Cl)c2)cc1`, the GI50 in the test on A549 was > 100 µM (inactive); in the test on ACHN, > 100 µM (inactive); in the test on BT-549, > 100 µM (inactive); with CAKI-1 it was > 100 µM (inactive); in the test with HCT-15, > 100 µM; with HOP-92, > 100 µM (inactive). Further, the GI50 in the test with K562, in the test with KM12, in the test on LOX IMVI, in the test on MCF7, in the test on NCI-H460 and in the test with NCI-H522 was > 100 µM (inactive) in each case. Further, the GI50 is > 100 µM (inactive) in the test with PC-3; > 100 µM (inactive) with SF-268; > 100 µM (inactive) in the test with SN12C; > 100 µM (inactive) with SR; > 100 µM (inactive) with SW-620; 40.4 µM (inactive) in the test on T47D. The GI50 with TK-10 and in the test with UACC-62 was > 100 µM (inactive) in each case.
